For series [1], the system named is HeLa. Kind of series: Antiproliferative activity against human HeLa assessed as reduction in cell viability measured after 48 hrs by MTT assay. The class given is functional, cell-based. (In general: Tetrazolium assays rely on reduction of a dye to a coloured formazan, in cell work by metabolically active cells.)
The next series deals with HCT-116. Kind of series: Antiproliferative activity against human HCT-116 assessed as reduction in cell viability measured after 48 hrs by MTT assay. The class given is functional, cell-based. Particulars: HCT-116, 48 h.
The subject of a further series is A549. Kind of series: Antiproliferative activity against human A549 assessed as reduction in cell viability measured after 48 hrs by MTT assay. The class given is functional, cell-based. To be noted: A549, 48 h.
Another series relates to MCF7. Kind of series: Antiproliferative activity against human MCF7 assessed as reduction in cell viability measured after 48 hrs by MTT assay. Particulars: MCF7, 48 h. Format: functional, cell-based.
The nature of series [2]: Metabolic stability in human liver microsomes assessed as parent compound remaining measured immediately after compound addition. The class given is ADME, Microsome. Particulars: read-out: Stability. On the technique in general: Liver microsomes are vesicles of endoplasmic reticulum, rich in cytochrome P450 enzymes.
In series [3] the test system is HeLa. Kind of series: Induction of apoptosis in human HeLa cells assessed as viable cells at 5 nM incubated for 48 hrs by Annexin V and propidium iodide Staining based assay (reference value: 98.5 %). To be noted: read-out: Activity. Format: functional.
Series [4] is described as follows: Metabolic stability in human liver microsomes assessed as parent compound remaining after 30 mins. The class given is ADME, Microsome. To be noted: read-out: Stability.
Series [5] is described as follows: Metabolic stability in human liver microsomes assessed as parent compound remaining after 60 mins. The class given is ADME, Microsome. To be noted: read-out: Stability.
In series [6] the test system is HeLa. Kind of series: Induction of apoptosis in human HeLa cells assessed as early apoptotic cells at 5 nM incubated for 48 hrs by Annexin V and propidium iodide Staining based assay (reference value: 0.2%). Format: functional.
Series [7] can be described thus: Metabolic stability in human liver microsomes assessed as parent compound remaining after 90 mins. Particulars: read-out: Stability. Format: ADME, Microsome.
Series [8] is described as follows: Metabolic stability in human liver microsomes assessed as half life. Format: ADME, Microsome.
A short description of series [9]: Metabolic stability in human liver microsomes assessed as parent compound remaining after 15 mins. The class given is ADME, Microsome. To be noted: read-out: Stability.
Series [10] relates to HeLa. Kind of series: Induction of apoptosis in human HeLa cells assessed as late apoptotic cells at 5 nM incubated for 48 hrs by Annexin V and propidium iodide Staining based assay (reference value: 1 %). Format: functional.
Series [11] has as its system HeLa. Kind of series: Induction of apoptosis in human HeLa cells assessed as necrotic cells at 5 nM incubated for 48 hrs by Annexin V and propidium iodide Staining based assay (reference value: 0.4%). Format: functional.

SMILES strings stand for the structures.

One may read the IC50 as the concentration at which inhibition is half-maximal. For `CCOc1cc(-c2ccc3[nH]ccc3c2)cn2c(-c3cc(OC)c(OC)c(OC)c3)nnc12`, the IC50 in the series on HeLa [1] is 166 nM; in the series with HCT-116, 374 nM; with A549, 589 nM; in the series with MCF7, 284 nM.
The half-life is how long it takes for the measured level to halve. As to `COc1ccc(/C=C\c2cc(OC)c(OC)c(OC)c2)cc1O` [COMBRETASTATIN A4], in series [2], the remaining at 0 min came out at 100%. Further, in the series on HeLa [3], the viability at 0.005 µM came out at 6.7%. The remaining at 0.5 h in [4] stood at 54.1%. For the same molecule, in [5], the remaining at 1 h came out at 26.1%. Moreover, the Activity stood at 38.6% in the series on HeLa [6], 52.2% with HeLa [10] and 2.6% with HeLa [11]. Further, the half-maximal inhibitory concentration (IC50) in the series with A549 was 15 nM; in the series on MCF7, 10 nM. In addition, the remaining at 1.5 h in series [7] worked out at 15.4%. For the same molecule, the half-life in series [8] is 32.5 min. Further, the remaining at 0.25 h in series [9] was determined as 75.6%.
Take `CC(=O)O[C@H]1C(=O)[C@@]2(C)[C@H]([C@H](OC(=O)c3ccccc3)[C@]3(O)C[C@H](OC(=O)[C@H](O)[C@@H](NC(=O)c4ccccc4)c4ccccc4)C(C)=C1C3(C)C)[C@]1(OC(C)=O)CO[C@@H]1C[C@@H]2O` [PACLITAXEL]: the concentration for half-maximal inhibition (IC50) with HeLa [1] stood at 8 nM; in the series with HCT-116, 21 nM; in the series with A549, 15 nM.
In the case of `COc1ccc(/C=C/C=C\c2cc(OC)c(OC)c(OC)c2)cc1O`, the remaining at 0 min in series [2] was 100%. In addition, the remaining at 0.5 h in series [4] was found to be 26.3%. In addition, the IC50 was found to be 62 nM in the series on HeLa [1], 42.3 nM with HCT-116, 118 nM in the series with A549 and 75 nM in the series on MCF7. Besides, the remaining at 1 h in series [5] was determined as 12.5%. For the same molecule, in series [7], the remaining at 1.5 h is 9.2%. In series [8], the half-life worked out at 26.7 min. For the same molecule, the remaining at 0.25 h in series [9] is 47.7%.
On to `COc1cc(-c2nnc3c(OC4CC4)cc(-c4ccc5[nH]ccc5c4)cn23)cc(OC)c1OC`, for which the IC50 worked out at 119 nM in the series with HeLa [1], 275 nM with HCT-116, 198 nM in the series with A549 and 259 nM with MCF7.
On to `COc1cc(-c2nnc3c(OC4CN(C(C)(C)C)C4)cc(-c4ccc5[nH]ccc5c4)cn23)cc(OC)c1OC`, for which the IC50 in the series on HeLa [1], with HCT-116, in the series on A549 and in the series on MCF7 was greater than 10000 nM in each case.
Regarding `COc1cc(-c2nnc3c(OC4CCC4)cc(-c4ccc5[nH]ccc5c4)cn23)cc(OC)c1OC`, the half-inhibitory concentration (IC50) with HeLa [1] was 142 nM; with HCT-116 it was 694 nM; in the series with A549, 232 nM; in the series with MCF7 it was 267 nM.
For `COc1cc(-c2nnc3c(OC)cc(-c4ccc5[nH]cc(C=O)c5c4)cn23)cc(OC)c1OC`, in that order: greater than 10000 nM, greater than 10000 nM, greater than 10000 nM and greater than 10000 nM.
Regarding `COc1cc(-c2nnc3c(OC(C)C)cc(-c4ccc5[nH]ccc5c4)cn23)cc(OC)c1OC`, the IC50 with HeLa [1] was 261 nM; in the series with HCT-116 it was 939 nM; in the series on A549, 1250 nM; with MCF7, 1020 nM.
For `COc1cc(-c2nnc3c(OC4COC4)cc(-c4ccc5c(ccn5C)c4)cn23)cc(OC)c1OC`, the concentration for half-maximal inhibition (IC50) in the series on HeLa [1] is 214 nM; in the series on HCT-116 it was 1290 nM; in the series on A549, 516 nM; in the series on MCF7, 1900 nM.
Consider `COc1cc2c(c(OC)c1OC)-c1ccc(OC)c(=O)cc1[C@@H](NC(C)=O)CC2` [COLCHICINE], for which the IC50 was found to be 103 nM in the series on HeLa [1], 83 nM with HCT-116, 111 nM in the series with A549 and 48 nM in the series on MCF7.
Consider `COc1cc(-c2nnc3c(OCC(F)(F)F)cc(-c4ccc5[nH]ccc5c4)cn23)cc(OC)c1OC`, for which the IC50 in the series with HeLa [1] was 348 nM; in the series on HCT-116, 900 nM; in the series on A549, 585 nM; with MCF7, 608 nM.
For `COc1cc(-c2cc(OC)c3nnc(-c4ccc5c(ccn5C)c4)n3c2)cc(OC)c1OC`, the IC50 with HeLa [1], with HCT-116, with A549 and with MCF7 was greater than 10000 nM each time.
For the molecule `C=C(c1cc(OC)c(OC)c(OC)c1)c1ccc2c(c1)c1ccccc1n2C`, the IC50 in the series on HeLa [1] was determined as 3970 nM; with HCT-116, 1540 nM; with A549, 478 nM; in the series on MCF7, 5490 nM.
As to `COc1cc(-c2nnc3c(OCC(F)(F)F)cc(-c4ccc5c(ccn5C)c4)cn23)cc(OC)c1OC`, the IC50 in the series on HeLa [1] amounted to 199 nM; in the series on HCT-116, 483 nM; in the series with A549, 614 nM; with MCF7 it was 382 nM.
Consider `COc1cc(-c2nnc3c(OC(C)C)cc(-c4ccc5c(ccn5C)c4)cn23)cc(OC)c1OC`, for which the IC50 with HeLa [1] turned out to be 503 nM; with HCT-116, 402 nM; in the series on A549, 322 nM; with MCF7, 204 nM.
On to `COc1cc(-c2nnc3c(OC4COC4)cc(-c4ccc5[nH]ccc5c4)cn23)cc(OC)c1OC`, for which the IC50 was 2780 nM in the series on HeLa [1], 5370 nM with HCT-116, 9810 nM in the series with A549 and 2470 nM in the series on MCF7.
`CCOc1cc(-c2ccc3c(c2)c2ccccc2n3C)cn2c(-c3cc(OC)c(OC)c(OC)c3)nnc12`: the half-maximal inhibitory concentration (IC50) in the series on HeLa [1] came to 350 nM; with HCT-116, 386 nM; with A549, 901 nM; in the series on MCF7, 303 nM.
For the molecule `CCOc1cc(-c2ccc3cc[nH]c3c2)cn2c(-c3cc(OC)c(OC)c(OC)c3)nnc12`, the IC50 with HeLa [1] came to 272 nM; with HCT-116, 1340 nM; with A549, 626 nM; in the series on MCF7, 334 nM.
Turning to `COc1cc(-c2nnc3c(OC)cc(-c4ccc5c(c4)c(C=O)cn5C)cn23)cc(OC)c1OC`, the IC50 with HeLa [1] was 820 nM; with HCT-116, 1800 nM; in the series with A549 it was 3080 nM; in the series on MCF7, 1120 nM.
For `COc1cc(-c2cc(OC)c3nnc(-c4ccc5[nH]ccc5c4)n3c2)cc(OC)c1OC`, the concentration for half-maximal inhibition (IC50) in the series on HeLa [1], with HCT-116, in the series with A549 and with MCF7 was greater than 10000 nM each time.
Regarding `CCCN1CC(Oc2cc(-c3ccc4c(ccn4C)c3)cn3c(-c4cc(OC)c(OC)c(OC)c4)nnc23)C1`, the IC50 with HeLa [1] worked out at 211 nM; in the series on HCT-116, 675 nM; in the series on A549 it was 234 nM; with MCF7 it was 378 nM.
On the same counts, the results for `CCOc1cc(-c2ccc3c(ccn3C)c2)cn2c(-c3cc(OC)c(OC)c(OC)c3)nnc12` are 210 nM, 228 nM, 334 nM and 140 nM.
For `CCOc1cc(-c2ccc3ccn(C)c3c2)cn2c(-c3cc(OC)c(OC)c(OC)c3)nnc12`, in that order: 240 nM, 291 nM, 349 nM and 239 nM.
For `COc1cc(-c2nnc3c(OC4CC4)cc(-c4ccc5c(ccn5C)c4)cn23)cc(OC)c1OC`, in that order: 97 nM, 135 nM, 168 nM and 118 nM.
With `CCOc1cc(-c2ccc3[nH]c4ccccc4c3c2)cn2c(-c3cc(OC)c(OC)c(OC)c3)nnc12`, the IC50 came out at 472 nM in the series on HeLa [1], 2420 nM with HCT-116, 922 nM with A549 and 295 nM in the series with MCF7.
Turning to `COc1cc(-c2nnc3c(OC4CCC4)cc(-c4ccc5c(ccn5C)c4)cn23)cc(OC)c1OC`, the IC50 in the series on HeLa [1] was determined as 177 nM; with HCT-116 it was 750 nM; in the series on A549, 176 nM; in the series with MCF7 it was 125 nM.
For `COc1cc(-c2nnc3c(OC)cc(-c4ccc5[nH]ccc5c4)cn23)cc(OC)c1OC`, the IC50 stood at 85 nM in the series on HeLa [1], 108 nM with HCT-116, 167 nM in the series with A549 and 80 nM with MCF7.

The values above are taken from ChEMBL document CHEMBL5055630, “Design, synthesis and biological evaluation of indole-based [1,2,4]triazolo[4,3-a] pyridine derivatives as novel microtubule polymerization inhibitors” (Eur J Med Chem, 2021).
